Each block holds one compound with its values, some of them ahead of it.
Experiments:
[1] = molecular target: Vascular endothelial growth factor receptor 3 (Homo sapiens, UniProt P35916); experiment: Selectivity interaction (KinomeScan (DiscoverX)) EUB0000699a FLT4; conditions: at 10 µM
[2] = test system: Tyrosine-protein kinase ABL1 (Homo sapiens), P00519 [Q252H]; experiment: (§1) Selectivity interaction (Ambit KINOMEscan and KiNATiv profiling in Jurkat cells) EUB0000090b ABL1; format: cell-based; conditions: at 1 µM
[3] = molecular target: Tyrosine-protein kinase ABL1 (Homo sapiens, UniProt P00519); experiment: as §1; format: cell-based; conditions: at 1 µM
[4] = test system: Tyrosine-protein kinase ABL1 (Homo sapiens), P00519 [M351T]; experiment: as §1; format: cell-based; conditions: at 1 µM
[5] = test system: Tyrosine-protein kinase ABL1 (Homo sapiens), P00519 [T315I]; experiment: as §1; format: cell-based; conditions: at 1 µM
[6] = test system: Tyrosine-protein kinase ABL1 (Homo sapiens), P00519 [E255K]; experiment: as §1; format: cell-based; conditions: at 1 µM
[7] = test system: Tyrosine-protein kinase ABL1 (Homo sapiens), P00519 [H396P]; experiment: as §1; format: cell-based; conditions: at 1 µM
[8] = molecular target: Calcium/calmodulin-dependent protein kinase type 1 (Homo sapiens) (UniProt Q14012); experiment: Selectivity interaction (KinomeScan (DiscoverX)) EUB0000655a CAMK1; conditions: at 10 µM
[9] = molecular target: Myosin-IIIa (Homo sapiens) (UniProt Q8NEV4); experiment: Selectivity interaction (KinomeScan (DiscoverX)) EUB0000618a MYO3A; conditions: at 10 µM
[10] = molecular target: T1, Serine/threonine-protein kinase ULK2 (Homo sapiens) (UniProt Q8IYT8); experiment: Selectivity interaction (KinomeScan (DiscoverX)) EUB0000595a ULK2; conditions: at 10 µM
T1 sequence (whole entry): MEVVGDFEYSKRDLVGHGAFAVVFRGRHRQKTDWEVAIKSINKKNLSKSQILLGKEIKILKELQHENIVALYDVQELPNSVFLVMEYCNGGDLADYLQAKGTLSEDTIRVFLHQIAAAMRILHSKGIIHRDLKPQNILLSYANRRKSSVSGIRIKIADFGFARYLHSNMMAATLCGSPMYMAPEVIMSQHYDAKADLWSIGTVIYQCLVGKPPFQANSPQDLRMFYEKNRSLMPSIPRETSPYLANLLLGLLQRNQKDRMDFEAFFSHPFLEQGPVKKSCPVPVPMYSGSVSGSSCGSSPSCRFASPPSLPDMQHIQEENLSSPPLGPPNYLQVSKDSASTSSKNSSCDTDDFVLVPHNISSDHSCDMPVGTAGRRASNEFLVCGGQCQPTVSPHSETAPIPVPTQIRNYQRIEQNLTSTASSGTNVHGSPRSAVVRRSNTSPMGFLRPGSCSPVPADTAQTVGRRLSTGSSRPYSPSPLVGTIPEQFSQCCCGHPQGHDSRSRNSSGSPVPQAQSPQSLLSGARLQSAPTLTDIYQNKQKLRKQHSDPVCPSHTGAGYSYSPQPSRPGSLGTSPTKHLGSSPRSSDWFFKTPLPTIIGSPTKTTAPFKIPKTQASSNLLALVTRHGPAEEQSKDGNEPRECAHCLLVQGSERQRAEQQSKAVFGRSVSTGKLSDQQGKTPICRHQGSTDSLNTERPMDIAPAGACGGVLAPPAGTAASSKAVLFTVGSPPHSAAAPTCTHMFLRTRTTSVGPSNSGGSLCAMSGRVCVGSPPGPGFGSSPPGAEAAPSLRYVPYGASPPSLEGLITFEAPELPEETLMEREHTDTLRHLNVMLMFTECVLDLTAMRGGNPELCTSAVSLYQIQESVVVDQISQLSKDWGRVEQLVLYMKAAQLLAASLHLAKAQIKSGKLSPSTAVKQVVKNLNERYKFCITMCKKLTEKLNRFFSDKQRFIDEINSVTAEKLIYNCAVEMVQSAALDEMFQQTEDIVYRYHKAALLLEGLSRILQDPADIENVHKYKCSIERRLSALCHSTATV

[11] = molecular target: Serine/threonine-protein kinase/endoribonuclease IRE1 (Homo sapiens) (UniProt O75460); experiment: Selectivity interaction (KinomeScan (DiscoverX)) EUB0000595a ERN1; conditions: at 10 µM
Focal adhesion kinase 1 = Focal adhesion kinase 1 (Homo sapiens, UniProt Q05397); experiment: Selectivity interaction (Upstate Kinase Profiler service (Millipore)) EUB0000056c PTK2; conditions: at 1 µM
[12] = molecular target: Vascular endothelial growth factor receptor 1 (Homo sapiens) (UniProt P17948); experiment: Selectivity interaction (Upstate Kinase Profiler service (Millipore)) EUB0000056c FLT1; conditions: at 1 µM
[13] = molecular target: Mitotic checkpoint serine/threonine-protein kinase BUB1 (Homo sapiens, UniProt O43683); experiment: Selectivity interaction (KinomeScan (DiscoverX)) EUB0000229b BUB1; conditions: at 10 µM
[14] = molecular target: Serine/threonine-protein kinase Chk2 (Homo sapiens) (UniProt O96017); experiment: Selectivity interaction (ProQinase) EUB0000171b CHEK2
[15] = molecular target: T2, Lymphokine-activated killer T-cell-originated protein kinase (Homo sapiens) (UniProt Q96KB5); experiment: Selectivity interaction (ProQinase) EUB0000171b PBK
T2 sequence (whole entry): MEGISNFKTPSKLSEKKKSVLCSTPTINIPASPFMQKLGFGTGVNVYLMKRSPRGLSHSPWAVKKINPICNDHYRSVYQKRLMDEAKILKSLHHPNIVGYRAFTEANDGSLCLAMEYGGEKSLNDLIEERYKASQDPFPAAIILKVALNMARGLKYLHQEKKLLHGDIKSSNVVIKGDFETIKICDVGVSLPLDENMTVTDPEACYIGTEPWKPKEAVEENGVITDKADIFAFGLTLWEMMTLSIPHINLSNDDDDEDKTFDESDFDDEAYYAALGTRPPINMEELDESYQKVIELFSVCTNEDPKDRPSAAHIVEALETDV

[16] = molecular target: RAC-beta serine/threonine-protein kinase (Homo sapiens) (UniProt P31751); experiment: Selectivity interaction (KinomeScan (DiscoverX)) EUB0001049a AKT2; conditions: at 1 µM
[17] = molecular target: T3, Dual specificity mitogen-activated protein kinase kinase 6 (Homo sapiens) (UniProt P52564); experiment: Selectivity interaction (KinomeScan (DiscoverX)) EUB0000666a MAP2K6; conditions: at 10 µM
T3 sequence (whole entry): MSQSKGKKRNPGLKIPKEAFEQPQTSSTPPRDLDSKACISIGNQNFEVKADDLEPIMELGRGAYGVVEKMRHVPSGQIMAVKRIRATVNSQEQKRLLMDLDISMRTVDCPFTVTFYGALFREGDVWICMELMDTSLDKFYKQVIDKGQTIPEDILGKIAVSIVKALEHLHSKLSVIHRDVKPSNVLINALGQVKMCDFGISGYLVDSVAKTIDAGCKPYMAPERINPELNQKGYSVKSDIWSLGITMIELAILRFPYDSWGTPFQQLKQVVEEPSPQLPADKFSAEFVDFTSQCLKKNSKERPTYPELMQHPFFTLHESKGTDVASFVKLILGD

[18] = molecular target: Serine/threonine-protein kinase 32C (Homo sapiens) (UniProt Q86UX6); experiment: Selectivity interaction (KinomeScan (DiscoverX)) EUB0000666a STK32C; conditions: at 10 µM
[19] = molecular target: 1-phosphatidylinositol 3-phosphate 5-kinase (Homo sapiens) (UniProt Q9Y2I7); experiment: Selectivity interaction (KinomeScan (DiscoverX)) EUB0000695a PIKFYVE; conditions: at 100 nM

Serine/threonine-protein kinase Chk2 (Homo sapiens), sequence (O96017 whole entry): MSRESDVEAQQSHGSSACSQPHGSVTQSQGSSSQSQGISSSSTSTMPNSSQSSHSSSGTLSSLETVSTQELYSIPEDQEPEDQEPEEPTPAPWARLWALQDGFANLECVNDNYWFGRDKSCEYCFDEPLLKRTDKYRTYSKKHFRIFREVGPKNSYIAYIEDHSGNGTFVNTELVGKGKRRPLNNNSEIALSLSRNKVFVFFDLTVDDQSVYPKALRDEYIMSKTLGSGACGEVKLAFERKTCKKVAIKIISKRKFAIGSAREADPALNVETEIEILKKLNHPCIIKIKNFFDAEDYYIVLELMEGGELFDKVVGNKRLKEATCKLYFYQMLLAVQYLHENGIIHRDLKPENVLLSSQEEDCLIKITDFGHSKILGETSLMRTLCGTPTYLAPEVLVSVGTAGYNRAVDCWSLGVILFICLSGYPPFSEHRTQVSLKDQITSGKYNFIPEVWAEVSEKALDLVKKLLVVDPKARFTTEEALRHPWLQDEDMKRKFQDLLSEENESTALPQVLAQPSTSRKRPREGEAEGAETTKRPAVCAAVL
Serine/threonine-protein kinase 32C (Homo sapiens), sequence (Q86UX6 whole entry): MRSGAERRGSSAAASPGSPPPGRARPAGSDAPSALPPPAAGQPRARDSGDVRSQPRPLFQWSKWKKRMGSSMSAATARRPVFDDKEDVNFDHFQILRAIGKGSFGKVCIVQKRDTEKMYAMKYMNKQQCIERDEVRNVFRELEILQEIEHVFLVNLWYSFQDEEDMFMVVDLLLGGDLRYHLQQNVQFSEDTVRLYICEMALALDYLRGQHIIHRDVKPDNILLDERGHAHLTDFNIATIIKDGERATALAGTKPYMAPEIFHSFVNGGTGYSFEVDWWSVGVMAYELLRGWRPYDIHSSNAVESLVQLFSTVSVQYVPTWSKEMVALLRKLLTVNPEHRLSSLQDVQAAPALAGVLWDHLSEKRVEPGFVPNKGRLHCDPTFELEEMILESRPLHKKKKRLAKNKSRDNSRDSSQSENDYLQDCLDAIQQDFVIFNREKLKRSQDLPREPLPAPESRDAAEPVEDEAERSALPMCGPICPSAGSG
RAC-beta serine/threonine-protein kinase (Homo sapiens), sequence (P31751 whole entry): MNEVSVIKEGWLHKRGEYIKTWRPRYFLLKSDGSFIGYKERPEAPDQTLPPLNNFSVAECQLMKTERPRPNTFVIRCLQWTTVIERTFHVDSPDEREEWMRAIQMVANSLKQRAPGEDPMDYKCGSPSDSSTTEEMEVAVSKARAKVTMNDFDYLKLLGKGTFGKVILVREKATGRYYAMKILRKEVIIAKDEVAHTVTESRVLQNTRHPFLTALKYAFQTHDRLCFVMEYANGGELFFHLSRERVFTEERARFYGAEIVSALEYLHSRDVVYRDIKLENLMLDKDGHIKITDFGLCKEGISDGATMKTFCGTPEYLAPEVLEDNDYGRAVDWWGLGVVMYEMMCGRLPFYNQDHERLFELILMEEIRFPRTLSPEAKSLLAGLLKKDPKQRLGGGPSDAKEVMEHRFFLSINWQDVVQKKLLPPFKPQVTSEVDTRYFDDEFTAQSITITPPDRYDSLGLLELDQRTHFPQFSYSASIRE
Mitotic checkpoint serine/threonine-protein kinase BUB1, sequence (O43683 whole entry, looked up): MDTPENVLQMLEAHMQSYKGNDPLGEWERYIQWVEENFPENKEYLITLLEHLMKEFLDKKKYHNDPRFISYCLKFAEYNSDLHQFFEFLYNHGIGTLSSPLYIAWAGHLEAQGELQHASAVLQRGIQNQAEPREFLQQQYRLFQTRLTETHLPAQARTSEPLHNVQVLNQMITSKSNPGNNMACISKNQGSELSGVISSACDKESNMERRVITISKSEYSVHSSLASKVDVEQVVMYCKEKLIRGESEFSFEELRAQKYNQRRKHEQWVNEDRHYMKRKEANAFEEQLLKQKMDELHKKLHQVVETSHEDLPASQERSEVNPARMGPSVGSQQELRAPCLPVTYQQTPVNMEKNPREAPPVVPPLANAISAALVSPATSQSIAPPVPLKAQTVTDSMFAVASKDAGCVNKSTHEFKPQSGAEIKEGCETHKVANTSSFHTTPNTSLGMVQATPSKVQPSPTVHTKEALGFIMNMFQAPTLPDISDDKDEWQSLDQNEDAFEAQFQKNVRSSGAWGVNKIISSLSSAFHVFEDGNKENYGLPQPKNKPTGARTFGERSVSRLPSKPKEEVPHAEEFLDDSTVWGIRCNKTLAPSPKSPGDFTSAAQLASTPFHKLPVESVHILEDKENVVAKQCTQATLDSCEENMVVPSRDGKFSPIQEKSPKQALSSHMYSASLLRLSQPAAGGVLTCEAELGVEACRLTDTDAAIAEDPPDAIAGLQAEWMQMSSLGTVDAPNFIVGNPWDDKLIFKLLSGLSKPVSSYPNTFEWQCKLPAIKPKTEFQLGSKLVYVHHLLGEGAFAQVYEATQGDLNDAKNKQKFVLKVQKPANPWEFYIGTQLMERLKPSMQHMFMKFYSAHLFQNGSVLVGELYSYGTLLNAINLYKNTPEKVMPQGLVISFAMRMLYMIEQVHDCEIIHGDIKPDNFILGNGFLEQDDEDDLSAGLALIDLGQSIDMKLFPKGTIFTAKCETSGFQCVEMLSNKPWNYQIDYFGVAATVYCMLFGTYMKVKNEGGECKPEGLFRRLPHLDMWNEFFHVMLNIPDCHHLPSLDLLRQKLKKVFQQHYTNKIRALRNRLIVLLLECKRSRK
Myosin-IIIa (Homo sapiens), sequence (Q8NEV4 whole entry): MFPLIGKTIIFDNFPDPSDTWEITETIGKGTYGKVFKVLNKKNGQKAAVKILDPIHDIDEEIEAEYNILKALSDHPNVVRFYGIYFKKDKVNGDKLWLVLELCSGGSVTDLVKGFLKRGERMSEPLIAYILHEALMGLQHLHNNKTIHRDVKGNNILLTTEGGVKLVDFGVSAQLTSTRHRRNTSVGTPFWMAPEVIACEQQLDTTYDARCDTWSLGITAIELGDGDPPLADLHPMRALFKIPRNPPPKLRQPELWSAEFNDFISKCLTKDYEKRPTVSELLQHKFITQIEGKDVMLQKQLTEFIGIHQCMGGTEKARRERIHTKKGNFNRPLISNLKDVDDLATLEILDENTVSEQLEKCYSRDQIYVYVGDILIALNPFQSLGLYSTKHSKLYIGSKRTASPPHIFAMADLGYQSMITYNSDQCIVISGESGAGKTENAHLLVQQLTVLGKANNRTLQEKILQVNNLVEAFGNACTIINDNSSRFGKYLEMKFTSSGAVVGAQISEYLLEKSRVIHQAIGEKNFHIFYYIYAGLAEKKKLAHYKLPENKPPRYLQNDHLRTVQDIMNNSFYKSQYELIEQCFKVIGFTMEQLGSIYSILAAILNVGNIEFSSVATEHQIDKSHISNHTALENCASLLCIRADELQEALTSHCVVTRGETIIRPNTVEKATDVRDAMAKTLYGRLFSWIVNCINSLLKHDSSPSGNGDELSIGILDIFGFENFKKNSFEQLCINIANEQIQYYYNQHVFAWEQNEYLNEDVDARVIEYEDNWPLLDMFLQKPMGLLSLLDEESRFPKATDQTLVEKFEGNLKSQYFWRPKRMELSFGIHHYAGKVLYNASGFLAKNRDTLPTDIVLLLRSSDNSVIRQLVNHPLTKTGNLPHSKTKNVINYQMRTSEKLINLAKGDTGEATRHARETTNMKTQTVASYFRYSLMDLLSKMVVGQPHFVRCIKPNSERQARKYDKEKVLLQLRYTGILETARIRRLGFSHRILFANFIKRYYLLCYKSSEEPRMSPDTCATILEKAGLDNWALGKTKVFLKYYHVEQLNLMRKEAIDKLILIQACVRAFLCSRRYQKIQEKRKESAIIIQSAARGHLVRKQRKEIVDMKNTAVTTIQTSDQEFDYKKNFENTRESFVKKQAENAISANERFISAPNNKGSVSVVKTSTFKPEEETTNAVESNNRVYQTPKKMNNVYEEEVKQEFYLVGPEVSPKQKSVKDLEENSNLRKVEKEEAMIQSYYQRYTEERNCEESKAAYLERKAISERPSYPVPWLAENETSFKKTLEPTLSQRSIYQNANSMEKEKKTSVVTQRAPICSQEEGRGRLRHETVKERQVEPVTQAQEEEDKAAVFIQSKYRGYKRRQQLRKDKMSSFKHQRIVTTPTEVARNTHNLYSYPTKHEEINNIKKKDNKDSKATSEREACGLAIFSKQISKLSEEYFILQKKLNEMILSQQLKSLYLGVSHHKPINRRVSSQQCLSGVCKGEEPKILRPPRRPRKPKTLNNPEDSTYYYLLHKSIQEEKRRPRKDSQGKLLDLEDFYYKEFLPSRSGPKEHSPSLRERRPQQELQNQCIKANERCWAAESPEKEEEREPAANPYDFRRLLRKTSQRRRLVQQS
Calcium/calmodulin-dependent protein kinase type 1 (Homo sapiens), sequence (Q14012 whole entry, looked up): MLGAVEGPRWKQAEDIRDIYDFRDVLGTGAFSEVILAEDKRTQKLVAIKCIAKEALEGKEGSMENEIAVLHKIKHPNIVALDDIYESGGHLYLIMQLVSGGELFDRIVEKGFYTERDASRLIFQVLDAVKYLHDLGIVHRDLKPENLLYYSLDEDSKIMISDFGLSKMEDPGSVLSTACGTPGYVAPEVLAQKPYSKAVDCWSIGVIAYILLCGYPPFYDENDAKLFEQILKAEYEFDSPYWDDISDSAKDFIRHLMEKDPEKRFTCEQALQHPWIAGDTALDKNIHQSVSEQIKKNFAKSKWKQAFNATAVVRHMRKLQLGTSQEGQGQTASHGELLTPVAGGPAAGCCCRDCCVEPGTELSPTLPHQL

% of control [1]: 6%
SMILES: CCN(CC)CCCCNc1ncc2cc(-c3cc(OC)cc(OC)c3)c(NC(=O)NC(C)(C)C)nc2n1

SMILES: CN(C)C/C=C/C(=O)Nc1ccc(C(=O)N2CCCC(Nc3ncc(Cl)c(-c4c[nH]c5ccccc45)n3)C2)cc1 (configuration not stated)
% of control [2]: 58%
% of control [3]: 94%
% of control [4]: 88%
% of control [5]: 99%
% of control [6]: 45%
% of control [7]: 95%

SMILES: CN(C)CCOc1ccc(-c2nc(-c3ccncc3)c(-c3ccc4c(c3)CC/C4=N\O)[nH]2)cc1
% of control [8]: 93%

SMILES: O[C@H]1CC[C@H](Nc2ncc3nc(Nc4c(F)cc(F)cc4F)n([C@H]4CCOC4)c3n2)CC1
% of control [9]: 100%

SMILES: COCC(=O)NC/C=C/c1ccc2ncnc(Nc3ccc(Oc4ccc(C)nc4)c(C)c3)c2c1 [CP-724714]
% of control [10]: 100%
% of control [11]: 82%

% of inhibition (Focal adhesion kinase 1): -2%
% of inhibition [12]: 21%
SMILES: Cc1ccc(-c2ccc3c(ccc4sc5c(c43)NC[C@@H](C)NC5=O)n2)cn1

SMILES: COc1cc(N(C)c2ccnc3ccc(C(F)(F)F)cc23)cc(OC)c1OC
% binding [13]: 98%

% of control ([14]; at 1 µM): 70%
% of control ([14]; at 5 µM): 36%
SMILES: C=CC(=O)Nc1cccc(C(=O)Nc2ccc(Nc3cc(-c4[nH]c(SC)nc4C)ccn3)cc2)c1
% of control ([15]; at 1 µM): 141%
% of control ([15]; at 5 µM): 89%

SMILES: COc1cc(Nc2nc(C)cc(-c3cnn4nc(OC)ccc34)n2)cc(C(F)(F)F)c1
% of control [16]: 100%

SMILES: O=C(NOC[C@H](O)CO)c1ccc(F)c(F)c1Nc1ccc(I)cc1F
% of control [17]: 100%
% of control [18]: 100%

SMILES: Cc1cc(F)c(C(=O)Nc2cccc(-c3nncn3C(C)C)n2)cc1-n1cnc(C2CC2)c1
% of control [19]: 98%

From ChEMBL document CHEMBL5465560, “Selectivity Literature for EUbOPEN Chemogenomic Library” (2024)
